From US20130303500A1, “COMPOUNDS AND METHODS FOR TREATING NEOPLASIA” (Medexis S.A., priority 2010, published 2013)

Experiments:
A549 (Lung) cells = test: Sulforhodamine B (SRB) assay, A549; assay type: cell-based; conditions: Homo sapiens; for CC50: A549, 48 h, read-out: LC50; for GI50 / IC (TGI): A549 Lung, SRB, 48 h
Experimental: (§1) Sulforhodamine B (SRB) assays were performed according to standard National Cancer Institute Guidelines. Briefly, human tumor cells from different cancer panels were seeded into 96 well plates in […] (plating densities ranging from 5-40,000 cells/well depending on the doubling time of individual cell lines) in serum-containing media for twenty-four hours prior to the addition of the compounds to be assayed. After 24 hours, one plate of each cell line was fixed in situ with trichloroacetic acid (TCA). The fixed slides were used to determine the cell population for each cell line at the time of drug addition (Tz). Each compound to be tested was solubilized in dimethyl sulfoxide (DMSO) and the desired concentration was then added to the medium and diluted serially 1:10 to provide a total of five or ten drug concentrations plus control (in a final volume of 200 μL). The starting dose before any dilution was 100 uM for all compounds.
(§2) Following drug addition, each culture was incubated for forty-eight hours. The assay was terminated with the addition of cold TCA. The supernatant was discarded, and the plates were washed with tap water and air dried. SRB solution was then added to each well. After staining, the bound stain was solubilized and the absorbance was read on an automated plate reader at a wavelength of 515 nm.
(§3) Using the absorbance measurements [time zero, (Tz), control growth, (C), and test growth in the presence of drug at the ten concentration levels (Ti)], the percentage growth was calculated at each of the drug concentrations levels. Percentage growth inhibition was calculated as:
(§4) [(Ti−Tz)/(C−Tz)]×100 for concentrations for which Ti>/=Tz
(§5) [(Ti−Tz)/Tz]×100 for concentrations for which Ti<Tz.
(§6) Three dose response parameters were calculated for each experimental agent. Growth inhibition of 50% (GI50) was calculated from [(Ti−Tz)/(C−Tz)]×100=50, which was the drug concentration resulting in a 50% reduction in the net protein increase (as measured by SRB staining) in control cells during the drug. The drug concentration resulting in total growth inhibition (TGI) was calculated from Ti=Tz. The LC50 (concentration of drug resulting in a 50% reduction in the measured protein at the end of the drug treatment as compared to that at the beginning) indicating a net loss of cells following treatment was calculated from [(Ti−Tz)/Tz]×100=−50.
(§7) Values were calculated for each of these three parameters when the level of activity was reached; however, if the effect was not reached or was exceeded, the value for that parameter was expressed as greater or less than the maximum or minimum concentration tested.

PC3 (Prostate) cells = test: Sulforhodamine B (SRB) assay, PC3; assay type: cell-based; conditions: Homo sapiens, Prostate cell, 48 h; for CC50: read-out: LC50; for GI50 / IC (TGI): PC3 Prostate, SRB
Experimental: as §1, §2, §3, §4, §5, §6, §7

SF268 (CNS) cells = test: Sulforhodamine B (SRB) assay, SF268; assay type: cell-based; conditions: Homo sapiens; for CC50: SF-268, 48 h, read-out: LC50; for GI50 / IC (TGI): SF-268, SF268 CNS, SRB, 48 h
Experimental: as §1, §2, §3, §4, §5, §6, §7

[1] = molecular target: Na+/K+-ATPase (Adenosine 5′-Triphosphatase isolated from porcine cerebral cortex); test: Na+/K+-ATPase inhibitory activity, colorimetric Adenosine 5′-Triphosphatase Enzymatic Assay (Sigma); assay type: biochemical; conditions: enzyme from porcine cerebral cortex, 0.5 units/ml
Experimental: The compound inhibitory effect on ATPase activity was assessed in vitro using the colorimetric Adenosine 5′-Triphosphatase Enzymatic Assay of Sigma (St. Louis, Mo.) according to the manufacturer's instructions. This assay utilizes Adenosine 5′-Triphosphatase isolated from porcine cerebral cortex. Each reaction was performed in a final volume of […] using 0.5 units/ml enzyme in the presence of the different inhibitors. […] IC50 values were determined using the Origin® program software (OriginLab, Northampton, Mass.).

H460 (Lung) cells = test: Sulforhodamine B (SRB) assay, H460; assay type: cell-based, human; conditions: for TGI / GI50: H460 Lung, SRB, 48 h; for CC50 / GI50: Homo sapiens; for CC50: NCI-H460, 48 h, read-out: LC50; for GI50: NCI-H460
Experimental: as §1, §2, §3, §4, §5, §6, §7

[2] = system: NCI-ADR-RES (Ovarian) cells; test: Sulforhodamine B (SRB) assay, NCI-ADR-RES (multidrug resistant); assay type: cell-based, human; conditions: 48 h; for CC50 / GI50: Homo sapiens; for CC50: NCI/ADR-RES, read-out: LC50; for GI50 / TGI: NCI-ADR-RES Ovarian, SRB
Experimental: as §1, §2, §3, §4, §5, §6, §7

[3] = system: 7 different cell lines (lung, ovarian, prostate, CNS, breast, colon); test: SRB assays across 7 cell lines; assay type: cell-based, human; conditions: for CC50 / GI50: Homo sapiens; for CC50: read-out: LC50 values; for GI50 / GI50 action in most cell lines: SRB; for GI50: average over cell lines; for viability and/or cell proliferation of cell lines: cell lines representative of lung, breast, CNS, prostate, ovarian, colon and renal neoplasias; for anti-cancer activity in SRB assays: multiple cell lines
Experimental: as §1, §2, §3, §4, §5, §6, §7
SRB provides a colorimetric measure of a compound's anti-cancer activity. SRB assays were performed with compounds of the invention in 7 different cell lines, which represent six different tumor panels (lung, ovarian, prostate, CNS, breast, colon).

MCF7 (Breast) cells = test: Sulforhodamine B (SRB) assay, MCF7; assay type: cell-based, human; conditions: for CC50 / GI50: Homo sapiens; for CC50: MCF7, 48 h, read-out: LC50; for GI50 / TGI: MCF7 Breast, SRB, 48 h
Experimental: as §1, §2, §3, §4, §5, §6, §7

HCT116 (Colon) cells = test: Sulforhodamine B (SRB) assay, HCT116; assay type: cell-based, human; conditions: for TGI / GI50: HCT116 Colon, SRB, 48 h; for CC50 / GI50: Homo sapiens; for CC50: HCT-116, 48 h, read-out: LC50; for GI50: HCT-116
Experimental: as §1, §2, §3, §4, §5, §6, §7

DU145 (Prostate) cells = test: MTT cell proliferation/viability assay, DU145; assay type: cell-based; conditions: Homo sapiens, DU-145, 72 h
Experimental: Cell proliferation/viability was assessed by the MTT [3-(4,5-dimethylthiazol-2-yl)-2,5-diphenyltetrazolium bromide] assay, which is commercially available (Sigma, St. Louis, Mo.). Cells were cultured in 96-well plates for twenty-four hours (7-10.000 cells/well) and incubated with various concentrations of the different compounds—as indicated in the Figures—in serum-containing medium (or left untreated) for seventy-two hours. At the end of incubation, the medium was aspirated and MTT dissolved in RPMI 1640 w/o phenol red was added to each well to a final concentration of 0.25 mg/ml. After four hours incubation in the dark (37° C., 5% CO2) the supernatant was discarded. The converted dye (blue formazan crystals) was solubilized by adding 200 μl dimethylsulfoxide to each well. Absorbance was measured at 550 nm with reference at 655 nm using a spectrophotometer with the respective filters. All assays were performed in triplicate.
The effect of the different compounds on the proliferation and viability of two cancer cell lines (DU145/prostate and CAKI/renal) was tested through quantitative (4,5-dimethylthiazol-2-yl)-2,5-diphenyltetrazolium bromide (MTT) assays.

SMILES	CC50 (A549 (Lung) cells)	GI50 (A549 (Lung) cells)	IC (TGI) (A549 (Lung) cells)	CC50 (PC3 (Prostate) cells)	GI50 (PC3 (Prostate) cells)	IC (TGI) (PC3 (Prostate) cells)	CC50 (SF268 (CNS) cells)	GI50 (SF268 (CNS) cells)	IC (TGI) (SF268 (CNS) cells)	IC50 [1]	TGI (H460 (Lung) cells)	CC50 (H460 (Lung) cells)	GI50 (H460 (Lung) cells)	CC50 [2]	GI50 [2]	viability and/or cell proliferation of cell lines [3]	CC50 (MCF7 (Breast) cells)	GI50 (MCF7 (Breast) cells)	TGI (MCF7 (Breast) cells)	IC50 (DU145 (Prostate) cells)	other results
CON=C1CC2C(CC[C@]3(C)C(=O)C(F)CC23)[C@@]2(C)CCC(=NOC3CCNC3)CC12 (stereo in doubt) [Compound 8, (5S,10R,13S,16R)-16a-fluoro-6-(methoxyimino)-10,13-dimethyl-3-((R)-pyrrolidin-3-yloxyimino)-tetradecahydro-2H-cyclopenta[a]phenanthren-17(14H)-one]	0.075 µM	0.006 µM	0.029 µM	0.919 µM	0.009 µM	0.199 µM	0.085 µM	0.004 µM	0.038 µM	0.311 µM	0.027 µM	0.074 µM	0.004 µM	0.508 µM	0.014 µM	reduced the viability and/or cell proliferation	6.96 µM	0.024 µM	0.327 µM	0.223 µM	TGI [2]: 0.071 µM; CC50 [3]: < 1 µM; GI50 [3]: < 1 µM; anti-cancer activity in SRB assays [3]: best activity; TGI (HCT116 (Colon) cells): 0.236 µM; CC50 (HCT116 (Colon) cells): 1.04 µM; GI50 (HCT116 (Colon) cells): 0.035 µM
CON=C1CC2C(CC[C@]3(C)C(=O)CCC23)[C@@]2(CO)CCC(=NOC3CCNC3)CC12 (stereo in doubt) [Compound 30, (5S,10S,13S)-10-(hydroxymethyl)-6-methoxy-imino-13-methyl-3-((S)-pyrrolidin-3-yloxyimino)-tetradecahydro-14H-cyclopenta[a]phenanthrene-17-one]	29.6 µM	4.07 µM		75.2 µM	7.71 µM	36700 µM	78.4 µM	5.62 µM	25800 µM											6.7 µM	
C=C1CC2C(CC[C@]3(C)C(=O)C(F)CC23)[C@@]2(C)CCC(=NOC3CCNC3)CC12 (stereo partly drawn) [Compound 6, (5S,10R,13S,16R)-16a-fluoro-6-methylene-10,13-dimethyl-3-((R)-pyrrolidin-3-yloxyimino)-tetradecahydro-2H-cyclopenta[a]phenanthren-17(14H)-one]	0.053 µM	0.005 µM	0.008 µM	1.24 µM	0.003 µM	0.055 µM	0.071 µM	< 0.001 µM	0.02 µM		0.008 µM	0.053 µM	0.003 µM	0.079 µM	0.018 µM	reduced the viability and/or cell proliferation	1.28 µM	0.009 µM	0.082 µM		TGI [2]: 0.049 µM; CC50 [3]: < 1 µM; GI50 [3]: < 1 µM; anti-cancer activity in SRB assays [3]: best activity; TGI (HCT116 (Colon) cells): 0.088 µM; CC50 (HCT116 (Colon) cells): 0.728 µM; GI50 (HCT116 (Colon) cells): 0.009 µM
C[C@]12CCC(=NO[C@H]3CCNC3)C(c3ccccc3)C1CCC1C2CC[C@]2(C)C(=O)CCC12 (stereo partly drawn) [Compound 21, (10R,13S)-10,13-dimethyl-4-phenyl-3-((S)-pyrrolidin-3-yloxyimino)-tetradecahydro-2H-cyclopenta[a]phenanthren-17(14H)-one]	45.3 µM	4.41 µM		49.1 µM	4.46 µM		57.2 µM	4.16 µM	8450 µM	19.3 µM						reduced the viability and/or cell proliferation				13.5 µM	GI50 action in most cell lines [3]: single-digit micromolar
C[C@]12CCC3C(CC[C@H]4CC(=NO[C@H]5CCNC5)CC[C@]34CO)C1CCC2=O (stereo partly drawn) [Compound 25, (5S,10R,13S)-10-(hydroxymethyl)-13-methyl-3-((S)-pyrrolidin-3-yloxyimino)-tetradecahydro-2H-cyclopenta[a]phenanthren-17(14H)-one]	> 100 µM	4.81 µM	9410 µM	9.44 µM	3.89 µM		85.4 µM	5.74 µM	31300 µM	0.525 µM		> 100 µM	4.37 µM			reduced the viability and/or cell proliferation	> 100 µM	6.17 µM		15 µM	GI50 action in most cell lines [3]: single-digit micromolar
C[C@]12CCC3C(CC(=O)[C@H]4CC(=NO[C@H]5CCNC5)CC[C@]34CO)C1CCC2=O (stereo partly drawn) [Compound 28, (5S,10S,13S)-10-(hydroxymethyl)-13-methyl-3-((S)-pyrrolidin-3-yloxyimino)-tetradecahydro-14H-cyclopenta[a]phenanthrene-6,17-dione]	> 100 µM	62.6 µM	> 100 µM	157 µM	53.5 µM		> 100 µM	63.8 µM	> 100 µM	12.9 µM	>100 µM	> 100 µM	57.6 µM			reduced the viability and/or cell proliferation	> 100 µM	76.5 µM	>100 µM	87 µM	
CC1CC2C(CC[C@]3(C)C(=O)C(F)CC23)[C@@]2(C)CCC(=NOC3CCNC3)C=C12 (stereo partly drawn) [Compound 86, 16-Fluoro-6,10,13-trimethyl-1,6,7,8,9,10,11,12,13,14,15,16-dodecahydro-2H-cyclopenta[a]phenanthrene-3,17-dione 3-(O-pyrrolidin-3-yl-oxime)]	8.05 µM	2.45 µM	5250 µM	72.4 µM	5.37 µM	9780 µM	8.11 µM	1.86 µM	4980 µM			8.07 µM	2.57 µM	48.1 µM	4.13 µM	reduced the viability and/or cell proliferation	59.3 µM	4.35 µM			CC50 (HCT116 (Colon) cells): 58.8 µM; GI50 (HCT116 (Colon) cells): 3.71 µM
